What was measured:
hMAO-A = target: T1, hMAO-A (Homo sapiens, UniProt P21397); experiment: Recombinant human MAO-A inhibition screening (Amplex Red, p-tyramine); type: biochemical; details: for Selectivity index: IC50 (MAO-A)/IC50 (MAO-B); for IC50: recombinant hMAO-A, p-tyramine substrate, mean SEM
T1 construct: purchased Sigma-Aldrich; host or cells: insect cells (BTI-TN-5B14) infected with recombinant baculovirus
T1 sequence (P21397 1-527): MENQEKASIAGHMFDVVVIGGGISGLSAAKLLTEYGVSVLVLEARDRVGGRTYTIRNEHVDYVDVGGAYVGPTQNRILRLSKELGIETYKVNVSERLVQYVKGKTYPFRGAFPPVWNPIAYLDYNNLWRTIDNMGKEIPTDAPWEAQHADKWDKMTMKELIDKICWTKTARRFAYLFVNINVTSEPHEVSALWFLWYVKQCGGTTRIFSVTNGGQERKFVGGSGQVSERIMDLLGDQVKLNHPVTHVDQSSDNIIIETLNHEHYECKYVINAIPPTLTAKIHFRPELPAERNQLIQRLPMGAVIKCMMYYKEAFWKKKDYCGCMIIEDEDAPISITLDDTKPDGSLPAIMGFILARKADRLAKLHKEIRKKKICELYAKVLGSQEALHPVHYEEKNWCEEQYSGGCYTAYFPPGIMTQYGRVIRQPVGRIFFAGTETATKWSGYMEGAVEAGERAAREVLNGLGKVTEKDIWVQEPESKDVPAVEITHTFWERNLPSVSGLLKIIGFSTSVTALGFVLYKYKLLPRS
Description: (§1) To evaluate IC50 values for the inhibition of human MAO-A and MAO-B by newly synthesized compounds the commercially available recombinant human enzymes expressed in insect cells were used (Sigma-Aldrich). The MAO inhibition assay was based on the method described by Anderson et al., 1993 and Chimenti et al. with some modifications. The Amplex Red MAO Kit tyramine (Sigma-Aldrich) affords a suitable fluorimetric method to evaluate MAO enzyme action of synthetic and natural compounds. In the assay, MAO reacts with p-tyramine, a common substrate for both MAO isoforms, ensuing in the production of H2O2, which is identified by a fluorimetric method (λex = 530/λem = 585 nm). Each test well contained 0.1 mL of sodium phosphate buffer (0.05 M, pH 7.4), a range of concentrations of the eugenol based derivatives or reference compounds along with recombinant hMAO-A or hMAO-B in appropriate quantity. After the preparation of this mixture the wells were subjected to incubation for 15 min at 37 °C, placed in the dark fluorimeter chamber. Once this incubation period over, the process was rendered by mixing 200 µM Amplex Red reagent (Sigma-Aldrich), 1 U/mL horseradish peroxidase (Sigma-Aldrich) and p-tyramine (Sigma-Aldrich). Subsequently, the formation of hydrogen peroxide exerted by MAO isoforms was quantified by using Amplex-Red reagent, a non-fluorescent probe that reacts with H2O2 in the existence of horse radish peroxidase to generate the fluorescent component resorufin. Moreover, the control analysis was calculated in the absence of compound and reference inhibitors. The probability of compounds to change the fluorescence produced in the reaction mix due to non-enzymatic inhibition was assessed by mixing titled compounds to solutions of single Amplex Red reagent in a sodium phosphate buffer. Data were processed in Microsoft Excel, to calculate IC50 values.

hMAO-B = target: T2, hMAO-B (Homo sapiens, UniProt P27338); experiment: Recombinant human MAO-B inhibition screening (Amplex Red, p-tyramine); type: biochemical; details: p-tyramine substrate, mean SEM
T2 construct: purchased Sigma-Aldrich; host or cells: insect cells (BTI-TN-5B14) infected with recombinant baculovirus
T2 sequence (P27338 1-520): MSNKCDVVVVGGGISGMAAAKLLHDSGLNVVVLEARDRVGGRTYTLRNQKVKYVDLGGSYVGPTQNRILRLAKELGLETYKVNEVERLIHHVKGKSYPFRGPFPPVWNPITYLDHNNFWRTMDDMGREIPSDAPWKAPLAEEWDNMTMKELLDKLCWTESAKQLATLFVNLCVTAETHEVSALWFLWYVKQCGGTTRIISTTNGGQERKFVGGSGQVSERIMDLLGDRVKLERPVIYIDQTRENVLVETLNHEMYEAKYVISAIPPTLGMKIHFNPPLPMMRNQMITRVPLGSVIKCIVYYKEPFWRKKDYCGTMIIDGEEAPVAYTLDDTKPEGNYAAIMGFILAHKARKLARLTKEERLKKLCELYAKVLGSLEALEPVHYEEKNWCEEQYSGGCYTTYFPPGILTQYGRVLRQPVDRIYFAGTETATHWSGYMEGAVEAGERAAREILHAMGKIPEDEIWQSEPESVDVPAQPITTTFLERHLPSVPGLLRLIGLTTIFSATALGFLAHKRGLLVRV
Description: as §1

DPPH scavenging activity = details: Table 6, mean ± SEM, n = 3
Method: Solutions of synthesized compounds were set in ethanol/water (1:1) having 10 mM to 100 mM at a period of 10 mM. The 0.01% DPPH· stock solution was prepared in ethanol/water (1:1). Samples were prepared as 5 mL DPPH· solution was mixed with 5 mL L-ascorbic acid solution then shaken vigorously and kept in the dark. Corresponding blank sample were prepared and L-ascorbic acid was used as reference standard. […] The actual decrease in absorption induced by the test was compared with the positive controls. The IC50 values were calculated use the dose inhibition curve in linear range by plotting the extract concentration versus the corresponding scavenging effect through following equation [(ADR − APR)/AO] × 100. Where ADR is the absorbance prior to reaction and APR is the absorbance after reaction with DPPH·.

[1] = Hydrogen peroxide scavenging (H2O2) assay; details: Table 7, mean ± SEM, n = 3
Method: Hydrogen peroxide generally turns into water and oxygen and produces highly toxic hydroxyl radical that renders the damage to DNA and peroxidation of lipid. H2O2 scavenging ability of eugenol based derivatives was evaluated by method described by Nakano and colleagues with some alteration. The hydrogen peroxide solution (40 mM) was prepared in phosphate buffer (40 mM pH 7.4) and addition of several ranges of synthesized derivatives (05–80 μg/mL) was done into H2O2 solution (2 mL). The determination of H2O2 concentration was done by UV/Vis Epoch ELISA reader at 230 nm upon incubation of 10 min. Solution of phosphate buffer without H2O2 was noted as blank reading. The hydrogen peroxide percentage inhibition was estimated through the formula [(AH − AD)/AO] × 100, where AH is the absorbance of the control and AD is the absorbance of compounds/reference taken as 05–80 μg/mL L-ascorbic acid.

[2] = Nitric oxide scavenging activity; details: Table 8, mean ± SEM, n = 3
Description: The generation of nitric oxide (NO·) on biological tissues is mediated by particular nitric oxide synthases enzyme that control the catabolism of the arginine to citrulline via creation of NO through a five electron oxidative reaction. At the physiological pH (7.2) in aqueous solution sodium nitroprusside decompose to produce NO·. Finally, NO· reacts with oxygen at underaerobic conditions and produces stable products (nitrate and nitrite), this amount can be determined by means of Griess reagent. The procedure for the nitric oxide scavenging activity was adopted from reports of Alam et al..

[3] = Ferric reducing antioxidant power (FRAP) assay; details: Table 9, mean ± SEM, n = 3;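 further: Ferrous-TPTZ reduction read as absorbance at 593 nm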
Method: The capacity of antioxidants to decrease ferric iron is measured by this method. The reaction of […] (TPTZ) and complex ferric iron yields ferrous form at low pH. […] This method was adopted from the reports of Benzie et al..

| Compound | Selectivity index (hMAO-A) | IC50 (hMAO-A) | IC50 (hMAO-B) | DPPH scavenging IC50 (DPPH scavenging activity) | H2O2 scavenging IC50 [1] | Nitric oxide scavenging IC50 [2] | FRAP IC50 [3] | melting point |
| --- | --- | --- | --- | --- | --- | --- | --- | --- |
| 1-(2-(4-allylphenoxy)acetyl)-4-(4-hydroxybenzoyl)thiosemicarbazide [Compound 5a] | 0.53 | 15.85 ± 0.039 µM | 29.37 ± 0.048 µM | 9.152 ± 0.063 µg/mL | 9.156 ± 0.002 µg/mL | 7.156 ± 0.002 µg/mL | 5.934 ± 0.053 µg/mL | – |
| C=CCc1ccc(OCC(=O)NNC(=S)NC(=O)c2cc(O)c(O)c(O)c2)c(OC)c1 [Compound 5b] | 0.19 | 5.989 ± 0.007 µM | 31.19 ± 0.016 µM | 8.304 ± 0.073 µg/mL | 8.904 ± 0.034 µg/mL | 6.456 ± 0.023 µg/mL | 5.112 ± 0.009 µg/mL | – |
| C=CCc1ccc(OCC(=O)NNC(=O)c2ccccc2O)c(OC)c1 [Compound 9a, N′-(2-(4-allyl-2-methoxyphenoxy)acetyl)-2-hydroxybenzohydrazide] | 0.22 | 10.84 ± 0.025 µM | 47.7 ± 0.073 µM | 9.514 ± 0.017 µg/mL | 9.547 ± 0.051 µg/mL | 9.007 ± 0.014 µg/mL | 7.234 ± 0.001 µg/mL | 230 to 231 °C |
| C=CCc1ccc(OCC(=O)NNC(=O)c2ccccc2S)c(OC)c1 [Compound 9b, N′-(2-(4-allyl-2-methoxyphenoxy)acetyl)-2-mercaptobenzohydrazide] | 0.59 | 16.62 ± 0.004 µM | 27.85 ± 0.054 µM | 9.293 ± 0.028 µg/mL | 9.393 ± 0.017 µg/mL | 8.095 ± 0.018 µg/mL | 9.912 ± 0.005 µg/mL | 210 to 211 °C |
| C=CCc1ccc(OCC(=O)NNC(=O)c2ccccn2)c(OC)c1 [Compound 11, N′-(2-(4-allyl-2-methoxyphenoxy)acetyl)picolinohydrazide] | 0.67 | 18.06 ± 0.044 µM | 26.8 ± 0.077 µM | 11.21 ± 0.044 µg/mL | 10.33 ± 0.022 µg/mL | 10.71 ± 0.743 µg/mL | 9.126 ± 0.013 µg/mL | 204 to 205 °C |
| C=CCc1ccc(OC(=O)c2ccc(O)c(OC)c2)c(OC)c1 [Compound 13a, 4-allyl-2-methoxyphenyl 4-hydroxy-3-methoxybenzoate] | 5.14 | 38.53 ± 0.018 µM | 7.494 ± 0.014 µM | 20.66 ± 0.032 µg/mL | 26.6 ± 0.544 µg/mL | 20.23 ± 0.073 µg/mL | 18.14 ± 0.001 µg/mL | 199 to 200 °C |
| C=CCc1ccc(OC(=O)c2ccc(O)cc2)c(OC)c1 [Compound 13b, 4-allyl-2-methoxyphenyl 4-hydroxybenzoate] | 5.72 | 52.55 ± 0.038 µM | 9.183 ± 0.034 µM | 12.47 ± 0.014 µg/mL | 12.5 ± 0.862 µg/mL | 11.74 ± 0.523 µg/mL | 10.77 ± 0.026 µg/mL | 178 to 179 °C |
| C=CCc1ccc(OC(=O)c2ccccc2O)c(OC)c1 [Compound 13c, 4-allyl-2-methoxyphenyl 2-hydroxybenzoate] | 1.76 | 22.38 ± 0.067 µM | 12.66 ± 0.021 µM | 16.04 ± 0.026 µg/mL | 15.7 ± 0.784 µg/mL | 14.63 ± 0.412 µg/mL | 14.63 ± 0.007 µg/mL | 157 to 159 °C |
| C=CCc1ccc(OC(=O)/C=C\c2ccccc2)c(OC)c1 [Compound 17, (Z)-4-allyl-2-methoxyphenyl 3-phenylacrylate] | 0.40 | 13.92 ± 0.051 µM | 34.2 ± 0.037 µM | 31.30 ± 0.014 µg/mL | 30.4 ± 0.064 µg/mL | 25.61 ± 0.076 µg/mL | 15.91 ± 0.003 µg/mL | – |
| O=C1O[C@H]([C@@H](O)CO)C(O)=C1O [L-Ascorbic acid, reference compound] | – | – | – | 8.58 ± 0.009 µg/mL | 8.121 ± 0.082 µg/mL | 7.523 ± 0.005 µg/mL | 8.112 ± 0.091 µg/mL | – |

Reference: publication PMC6661809, “Lead optimization for promising monoamine oxidase inhibitor from eugenol for the treatment of neurological disorder: synthesis and in silico based study” (BMC Chemistry, 2019)
